Data taken from ChEMBL document CHEMBL1697781, “Assessment of the health effects of chemicals in humans: II. Construction of an adverse effects database for QSAR modeling” (Curr Drug Discov Technol, 2004).

Test system: Hepatotoxicity
Assay: FDA HLAED, liver enzyme composite activity
Settings: human
Throughout, for GGT Increase - Index Value: reference of the scale not given here.
Throughout, for LDH Increase - Index Value: reference of the scale not given here.

SMILES	Composite Activity - Active	Composite Activity - Marginal	Composite Activity - Score
Clc1ccc2c(c1)C(N1CCNCC1)=Nc1ccccc1O2 [AMOXAPINE]	0	0	Inactive
CC1(C)S[C@@H]2[C@H](NC(=O)[C@H](N)c3ccc(O)cc3)C(=O)N2[C@H]1C(=O)O [AMOXICILLIN]	0	0	Inactive
CC(C)(C#N)c1cc(Cn2cncn2)cc(C(C)(C)C#N)c1 [ANASTROZOLE]	2	0	Active
Nc1cc(Cl)c(N=C2NCCN2)c(Cl)c1 [APRACLONIDINE]	0	0	Inactive
COc1ccc(CCN2CCC(Nc3nc4ccccc4n3Cc3ccc(F)cc3)CC2)cc1 [ASTEMIZOLE]	0	0	Inactive
O=C1C(O)=C([C@H]2CC[C@H](c3ccc(Cl)cc3)CC2)C(=O)c2ccccc21 [ATOVAQUONE]	0	0	Inactive
O=C(O)CCCCCCCC(=O)O [AZELAIC ACID]	0	0	Inactive

Same assay, conditions: human, Liver

SMILES	Composite Activity - Active	Composite Activity - Marginal	Composite Activity - Score
CC(C)NCC(O)COc1ccc(CC(N)=O)cc1 (configuration not stated) [ATENOLOL]	0	0	Inactive
CC(C)c1c(C(=O)Nc2ccccc2)c(-c2ccccc2)c(-c2ccc(F)cc2)n1CC[C@@H](O)C[C@@H](O)CC(=O)O [ATORVASTATIN]	3	0	Active

Test system: Hepatotoxicity
Assay: FDA HLAED, alkaline phosphatase increase
Settings: human

SMILES	Alkaline Phosphatase Increase - Activity Score	Alkaline Phosphatase Increase - Index Value	Alkaline Phosphatase Increase - Number of Reports
Clc1ccc2c(c1)C(N1CCNCC1)=Nc1ccccc1O2 [AMOXAPINE]	Inactive	0.7	< 4
CC1(C)S[C@@H]2[C@H](NC(=O)[C@H](N)c3ccc(O)cc3)C(=O)N2[C@H]1C(=O)O [AMOXICILLIN]	Inactive	0	< 4
CC(C)(C#N)c1cc(Cn2cncn2)cc(C(C)(C)C#N)c1 [ANASTROZOLE]	Inactive	6.4	< 4
Nc1cc(Cl)c(N=C2NCCN2)c(Cl)c1 [APRACLONIDINE]	Inactive	0	< 4
COc1ccc(CCN2CCC(Nc3nc4ccccc4n3Cc3ccc(F)cc3)CC2)cc1 [ASTEMIZOLE]	Inactive	1.2	>= 4
CC(C)NCC(O)COc1ccc(CC(N)=O)cc1 (configuration not stated) [ATENOLOL]	Inactive	0.1	< 4
CC(C)c1c(C(=O)Nc2ccccc2)c(-c2ccccc2)c(-c2ccc(F)cc2)n1CC[C@@H](O)C[C@@H](O)CC(=O)O [ATORVASTATIN]	Inactive	1.7	>= 4
O=C1C(O)=C([C@H]2CC[C@H](c3ccc(Cl)cc3)CC2)C(=O)c2ccccc21 [ATOVAQUONE]	Inactive	0	< 4
O=C(O)CCCCCCCC(=O)O [AZELAIC ACID]	Inactive	0	< 4

Test system: Hepatotoxicity
Assay: FDA HLAED, lactate dehydrogenase (LDH) increase
Settings: human

SMILES	LDH Increase - Activity Score	LDH Increase - Index Value	LDH Increase - Number of Reports
Clc1ccc2c(c1)C(N1CCNCC1)=Nc1ccccc1O2 [AMOXAPINE]	Inactive	0.7	< 4
CC1(C)S[C@@H]2[C@H](NC(=O)[C@H](N)c3ccc(O)cc3)C(=O)N2[C@H]1C(=O)O [AMOXICILLIN]	Inactive	0	< 4
CC(C)(C#N)c1cc(Cn2cncn2)cc(C(C)(C)C#N)c1 [ANASTROZOLE]	Inactive	6.4	< 4
Nc1cc(Cl)c(N=C2NCCN2)c(Cl)c1 [APRACLONIDINE]	Inactive	0	< 4
COc1ccc(CCN2CCC(Nc3nc4ccccc4n3Cc3ccc(F)cc3)CC2)cc1 [ASTEMIZOLE]	Inactive	0.4	< 4
CC(C)NCC(O)COc1ccc(CC(N)=O)cc1 (configuration not stated) [ATENOLOL]	Inactive	0.1	< 4
CC(C)c1c(C(=O)Nc2ccccc2)c(-c2ccccc2)c(-c2ccc(F)cc2)n1CC[C@@H](O)C[C@@H](O)CC(=O)O [ATORVASTATIN]	Inactive	2.5	>= 4
O=C1C(O)=C([C@H]2CC[C@H](c3ccc(Cl)cc3)CC2)C(=O)c2ccccc21 [ATOVAQUONE]	Inactive	9.1	< 4
O=C(O)CCCCCCCC(=O)O [AZELAIC ACID]	Inactive	0	< 4

Test system: Hepatotoxicity
Assay: FDA HLAED, serum glutamic pyruvic transaminase (SGPT) increase
Settings: human

SMILES	SGPT Increase - Activity Score	SGPT Increase - Index Value	SGPT Increase - Number of Reports
Clc1ccc2c(c1)C(N1CCNCC1)=Nc1ccccc1O2 [AMOXAPINE]	Inactive	0.7	< 4
CC1(C)S[C@@H]2[C@H](NC(=O)[C@H](N)c3ccc(O)cc3)C(=O)N2[C@H]1C(=O)O [AMOXICILLIN]	Inactive	0	< 4
CC(C)(C#N)c1cc(Cn2cncn2)cc(C(C)(C)C#N)c1 [ANASTROZOLE]	Active	12.8	>= 4
Nc1cc(Cl)c(N=C2NCCN2)c(Cl)c1 [APRACLONIDINE]	Inactive	0	< 4
COc1ccc(CCN2CCC(Nc3nc4ccccc4n3Cc3ccc(F)cc3)CC2)cc1 [ASTEMIZOLE]	Inactive	2.8	>= 4
CC(C)NCC(O)COc1ccc(CC(N)=O)cc1 (configuration not stated) [ATENOLOL]	Inactive	0.3	>= 4
CC(C)c1c(C(=O)Nc2ccccc2)c(-c2ccccc2)c(-c2ccc(F)cc2)n1CC[C@@H](O)C[C@@H](O)CC(=O)O [ATORVASTATIN]	Active	7.3	>= 4
O=C1C(O)=C([C@H]2CC[C@H](c3ccc(Cl)cc3)CC2)C(=O)c2ccccc21 [ATOVAQUONE]	Inactive	18.2	< 4
O=C(O)CCCCCCCC(=O)O [AZELAIC ACID]	Inactive	0	< 4

Test system: Hepatotoxicity
Assay: FDA HLAED, serum glutamic oxaloacetic transaminase (SGOT) increase
Settings: human

SMILES	SGOT Increase - Activity Score	SGOT Increase - Index Value	SGOT Increase - Number of Reports
Clc1ccc2c(c1)C(N1CCNCC1)=Nc1ccccc1O2 [AMOXAPINE]	Inactive	1	< 4
CC1(C)S[C@@H]2[C@H](NC(=O)[C@H](N)c3ccc(O)cc3)C(=O)N2[C@H]1C(=O)O [AMOXICILLIN]	Inactive	0.1	< 4
CC(C)(C#N)c1cc(Cn2cncn2)cc(C(C)(C)C#N)c1 [ANASTROZOLE]	Active	16.1	>= 4
Nc1cc(Cl)c(N=C2NCCN2)c(Cl)c1 [APRACLONIDINE]	Inactive	0	< 4
COc1ccc(CCN2CCC(Nc3nc4ccccc4n3Cc3ccc(F)cc3)CC2)cc1 [ASTEMIZOLE]	Inactive	2.6	>= 4
CC(C)NCC(O)COc1ccc(CC(N)=O)cc1 (configuration not stated) [ATENOLOL]	Inactive	0.5	>= 4
CC(C)c1c(C(=O)Nc2ccccc2)c(-c2ccccc2)c(-c2ccc(F)cc2)n1CC[C@@H](O)C[C@@H](O)CC(=O)O [ATORVASTATIN]	Active	6.5	>= 4
O=C1C(O)=C([C@H]2CC[C@H](c3ccc(Cl)cc3)CC2)C(=O)c2ccccc21 [ATOVAQUONE]	Inactive	18.2	< 4
O=C(O)CCCCCCCC(=O)O [AZELAIC ACID]	Inactive	0	< 4

Test system: Hepatotoxicity
Assay: FDA HLAED, gamma-glutamyl transferase (GGT) increase
Settings: human

SMILES	GGT Increase - Activity Score	GGT Increase - Index Value	GGT Increase - Number of Reports
Clc1ccc2c(c1)C(N1CCNCC1)=Nc1ccccc1O2 [AMOXAPINE]	Inactive	0	< 4
CC1(C)S[C@@H]2[C@H](NC(=O)[C@H](N)c3ccc(O)cc3)C(=O)N2[C@H]1C(=O)O [AMOXICILLIN]	Inactive	0	< 4
CC(C)(C#N)c1cc(Cn2cncn2)cc(C(C)(C)C#N)c1 [ANASTROZOLE]	Inactive	0	< 4
Nc1cc(Cl)c(N=C2NCCN2)c(Cl)c1 [APRACLONIDINE]	Inactive	0	< 4
COc1ccc(CCN2CCC(Nc3nc4ccccc4n3Cc3ccc(F)cc3)CC2)cc1 [ASTEMIZOLE]	Inactive	1.4	>= 4
CC(C)NCC(O)COc1ccc(CC(N)=O)cc1 (configuration not stated) [ATENOLOL]	Inactive	0	< 4
CC(C)c1c(C(=O)Nc2ccccc2)c(-c2ccccc2)c(-c2ccc(F)cc2)n1CC[C@@H](O)C[C@@H](O)CC(=O)O [ATORVASTATIN]	Active	6.2	>= 4
O=C1C(O)=C([C@H]2CC[C@H](c3ccc(Cl)cc3)CC2)C(=O)c2ccccc21 [ATOVAQUONE]	Inactive	0	< 4
O=C(O)CCCCCCCC(=O)O [AZELAIC ACID]	Inactive	0	< 4
